Laboratory results as given in article PMC7990224 (PLoS Pathogens, 2021).
Like-named read-outs stand apart in the source and are kept apart here.

Experiments:
SARS-CoV-2 trVLP = assay type: cell-based
Caco-2-N cells = test: in vitro; assay type: cell-based, human; conditions: Fig 6B-6E, at tested concentrations, CellTiter-Glo
Experimental: (§1) Caco-2-N cells were seeded into 96-well plate (1×10^3 cells/well). After 12 hours, cells were treated with drugs with different concentrations. Cell viability was measured two days post treatment with CellTiter-Glo Luminescent Cell Viability Assay kit (Promega, G7570) following standard protocol. In brief, cells in 100 μl culture medium were added with 100 μl CellTiter-Glo reagent. After 15 minutes, luminescence was recorded with GloMax (Promega). CC50 was determined using logarithmic interpolation using GraphPad Prism software version 7.0.

in vitro = assay type: cell-based, human; conditions: human, n.d. = not detected
Experimental: as §1

SARS-CoV-2 GFP/ΔN trVLP = assay type: cell-based
[1] = system: SARS-CoV-2 strain nCoV-SH01; test: microbe, parasite or virus in culture; assay type: cell-based
HCoV-OC43 = conditions: cited from earlier work
SARS-CoV-2 = conditions: cited from earlier work
[2] = system: avian infectious bronchitis virus (IBV); conditions: cited from earlier work
[3] = Severe acute respiratory syndrome coronavirus 2, A549-ACE2

[Cl-].[Li+] [LiCl]
effect on GFP expression (trVLP production) (SARS-CoV-2 trVLP): inhibit GFP expression in a dose-dependent manner

Cc1cccc(C)c1OCC(=O)N[C@@H](Cc1ccccc1)[C@@H](O)C[C@H](Cc1ccccc1)NC(=O)[C@H](C(C)C)N1CCCNC1=O [Lopinavir]
cytotoxic effect (Caco-2-N cells): serious cytotoxicity at the IC50 concentration | CC50 (in vitro; Fig 6F, CellTiter-Glo, two days treatment): 19100 nM | Selectivity Index (SI) (SARS-CoV-2 GFP/ΔN trVLP): 2.18

O[C@H]1[C@H]2c3cc4c(cc3CN3CCC(=C[C@@H]1O)[C@H]23)OCO4 [Lycorine chloride]
IC50 [1, 3]: 773 nM | inhibition of HCoV-OC43 infection (HCoV-OC43): inhibit HCoV-OC43 infection

CO[C@@H]1C[C@@H](C[C@H]2CC[C@H](C)[C@H]([C@@H](C)C(=O)O)O2)O[C@]2(O[C@](C)([C@H]3CC[C@@](C)([C@@H]4O[C@@H]([C@H]5O[C@@](O)(CO)[C@H](C)C[C@@H]5C)C[C@@H]4C)O3)C[C@H]2C)[C@@H]1C [Nigericin sodium]
IC50 ([1]; read-out: IC50): 11200 nM

CCC(CC)COC(=O)[C@H](C)N[P@](=O)(OC[C@H]1O[C@@](C#N)(c2ccc3c(N)ncnn23)[C@H](O)[C@@H]1O)Oc1ccccc1 [Remdesivir]
cytotoxic effect (Caco-2-N cells): no apparent cytotoxic effect

CC(C)c1nc(CN(C)C(=O)N[C@H](C(=O)N[C@@H](Cc2ccccc2)C[C@H](O)[C@H](Cc2ccccc2)NC(=O)OCc2cncs2)C(C)C)cs1 [Ritonavir]
cytotoxic effect (Caco-2-N cells): serious cytotoxicity at the IC50 concentration

Cn1cc(C2=C(c3ccc(Cl)cc3Cl)C(=O)NC2=O)c2ccccc21 [SB216763]
effect on GFP expression (trVLP production) (SARS-CoV-2 trVLP): inhibit GFP expression in a dose-dependent manner

CC[C@@H](C(=O)[C@@H](C)[C@@H](O)[C@H](C)[C@@H]1O[C@@H]([C@@H](CC)C(=O)O)CC[C@@H]1C)[C@H]1O[C@]2(C=C[C@@H](O)[C@]3(CC[C@@](C)([C@H]4CC[C@](O)(CC)[C@H](C)O4)O3)O2)[C@H](C)C[C@@H]1C [Salinomycin]
CC50 (in vitro; Fig 7G hit compounds, cell line for this CC50 not stated): 20200 nM | selectivity index (SI = CC50/IC50) [1]: 7.13 | IC50 [1, 3]: 2840 nM | antiviral activity against SARS-CoV-2 infection in vitro (SARS-CoV-2): potent antiviral activity | inhibition of HCoV-OC43 infection (HCoV-OC43): inhibit HCoV-OC43 infection

GC376
cytotoxic effect (Caco-2-N cells): no apparent cytotoxic effect

Monensin sodium
IC50 ([1]; read-out: IC50): 632 nM | inhibition of IBV infection [2]: blocks avian infectious bronchitis virus (IBV) infection | inhibition of HCoV-OC43 infection (HCoV-OC43): inhibit HCoV-OC43 infection

Tubeimoside I
IC50 ([1]; read-out: IC50): 1370 nM
